Results as given in ChEMBL document CHEMBL5370684, “Small-Molecule Heterocyclic Compounds: Gq-Biased Agonists for the 5-HT2A Receptor in Neuropsychiatric Treatment” (ACS Med Chem Lett, 2023).

Legend:
[1] = molecular target: T1, 5-hydroxytryptamine receptor 2A (Homo sapiens, UniProt P28223); assay: Agonist activity at 5-HT2A (unknown origin) expressed in HEK293T cells co-transfected with RLuc-fused Galphaq/GFP2/Gy9/Gbeta3 assessed as Gaq hetero trimeric G protein activation at 0.1 to 10 uM incubated for 30 mins using coelenterazine 400a as a substrate by BRET assay relative to control; type: functional, cell-based; conditions: filed as agonist, dose 0.1-10 µM
T1 sequence (P28223 whole entry, the tested form may be a part): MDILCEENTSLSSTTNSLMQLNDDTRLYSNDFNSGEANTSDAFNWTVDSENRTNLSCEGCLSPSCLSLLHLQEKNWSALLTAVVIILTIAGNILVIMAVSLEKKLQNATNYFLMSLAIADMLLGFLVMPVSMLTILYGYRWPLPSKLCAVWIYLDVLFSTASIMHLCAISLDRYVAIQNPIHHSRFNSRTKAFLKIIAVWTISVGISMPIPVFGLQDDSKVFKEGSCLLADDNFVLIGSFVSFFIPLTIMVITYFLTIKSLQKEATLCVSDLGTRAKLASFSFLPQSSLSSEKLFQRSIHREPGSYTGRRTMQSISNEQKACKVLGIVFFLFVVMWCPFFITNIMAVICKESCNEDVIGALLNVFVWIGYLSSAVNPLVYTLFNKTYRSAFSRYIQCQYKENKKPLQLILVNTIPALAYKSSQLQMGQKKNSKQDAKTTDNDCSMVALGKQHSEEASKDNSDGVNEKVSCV

[2] = molecular target: T1, 5-hydroxytryptamine receptor 2A; assay: Agonist activity at RLuc-fused 5-HT2A (unknown origin) expressed in HEK293T cells co-transfected with mVenus-fused beta arrestin-2/GRK2 assessed as beta arrestin-2 recruitment at 0.1 to 10 uM incubated for 30 mins using coelenterazine h as a substrate by BRET assay relative to control; type: functional, cell-based; conditions: dose 0.1-10 µM
[3] = molecular target: T1, 5-hydroxytryptamine receptor 2A; assay: Agonist activity at 5-HT2A (unknown origin) expressed in HEK293T cells co-transfected with RLuc-fused Galphaq/GFP2/Gy9/Gbeta3 assessed as Gaq hetero trimeric G protein activation incubated for 30 mins using coelenterazine 400a as a substrate by BRET assay; type: functional, cell-based
[4] = molecular target: T1, 5-hydroxytryptamine receptor 2A; assay: Agonist activity at RLuc-fused 5-HT2A (unknown origin) expressed in HEK293T cells co-transfected with mVenus-fused beta arrestin-2/GRK2 assessed as beta arrestin-2 recruitment incubated for 30 mins using coelenterazine h as a substrate by BRET assay; type: functional, cell-based
[5] = molecular target: T1, 5-hydroxytryptamine receptor 2A; assay: Displacement of [3H]-LSD form 5-HT2A (unknown origin) expressed in Flp-In-T-Rex-293 membrane by Microbeta scintillation counting analysis; type: cell membranes

EC50 [3] [nM]	EC50 [4] [nM]	Ki [5] [nM]	Structure (SMILES)	Emax [1] [%]	Emax ([2]; filed as agonist) [%]	Emax [2] [%]
–	–	–	CN1CCC=C(c2n[nH]c3c(Cl)cc(F)cc23)C1	91.4	88.5	–
–	–	–	COc1ccnc2[nH]cc(C3=CCCN(C)C3)c12	67.1	–	32.2
–	–	–	CN1CCC=C(c2n[nH]c3cc(F)ccc23)C1	47.1	–	27
–	–	–	Cc1ccnc2[nH]cc(C3=CCCN(C)C3)c12	68.7	–	38.9
–	–	–	COc1cccc2[nH]cc(C3=CCCN(C)C3)c12	91	47.7	–
–	–	–	CC(C)c1ccc2[nH]cc(C3=CCCNC3)c2c1	58.8	–	31.4
–	–	–	Fc1ccc2[nH]nc(C3=CCCNC3)c2c1	88.3	96	–
–	–	–	COc1cccc2[nH]cc(C3=CCCNC3)c12	96.1	51.8	–
–	–	–	Cc1cccc2[nH]cc(C3=CCCNC3)c12	85.7	42	–
–	–	–	COc1cccc2[nH]nc(C3=CCCNC3)c12	81.7	75.9	–
874	358	14	C1=C(c2c[nH]c3cccc(-c4ccccc4)c23)CNCC1	59.6	–	15.1
–	–	–	Clc1ccc2[nH]nc(C3=CCCNC3)c2c1	94.8	97	–
–	–	–	Fc1ccc(Cl)c2[nH]nc(C3=CCCNC3)c12	106	72.7	–
–	–	–	Clc1ccc2[nH]cc(C3=CCCNC3)c2c1	102	77.3	–
–	–	–	CN1CCC=C(c2n[nH]c3c(Cl)ccc(F)c23)C1	95.4	50.9	–
–	–	–	Fc1ccc2c(C3=CCCNC3)n[nH]c2c1	79.4	59.4	–
–	–	–	CN1CCC=C(c2c[nH]c3c(Cl)c(F)ccc23)C1	89.2	56.5	–
